The results in this text go back to patent EP2718307B1, “BETA-HAIRPIN PEPTIDOMIMETICS AS CXC4 ANTAGONISTS” (Polyphor AG, priority 2011, dated 2012).

Structures are written as SMILES. Bridge positions count the residues as written; N and C are the ends. Square brackets hold non-standard residues; d marks the D form. Peptide text beside a SMILES is read from it. Lys(iPr) = CC(C)NCCCC[C@H](N)C(=O)O; Orn(iPr) = CC(C)NCCC[C@H](N)C(=O)O

The test system of this assay is HSC mobilization. Nature of the assay: HSC mobilization in mouse (time-response and dose-response study, CFU-C assay). It is filed as in vivo, Male C57BI/6 mice. Particulars: for time of maximum mobilization: from time-response study; for ED50: sigmoidal fit of doses 1.5, 5 and 15 mg/kg i.p., maximum constrained to 4000 CFU/mL, ED50 corresponds to 2000 CFU/mL. The procedure: For the compounds of Ex. 1 and Ex. 2 a HSC mobilization study was performed consisting of a time-response study to assess the time of maximum mobilization after dosing and a subsequent dose-response study.
Male C57BI/6 mice (Janvier, France; n = 5 for Ex. 1, n = 3 for Ex. 2) received bolus i.p. injections of Ex. 1 and Ex. 2, respectively, (5 mg/kg) dissolved in 10 µL of water per g mouse weight containing 0.9% NaCl. Blood was withdrawn from the cheek pouch into EDTA coated tubes for the time points 0, 0.5, 1, 2, 4, 6 and 8 hrs after administration. The colony forming unit in culture counts (CFU-C counts) were determined by performing a CFU-C assay as described below.
Male C57BI/6 mice (Janvier, France; n = 5 per dose group for Ex. 1, n = 3 per dose group for Ex. 2) received bolus i.p. injections of Ex. 1 and Ex. 2, respectively, at doses of 0.5, 1.5, 5 and 15 mg/kg (compound dissolved in 10 µL of water per g mouse weight containing 0.9% NaCl). Blood was collected as described above at the time of maximum mobilization for Ex. 1 (4 h) and Ex. 2 (2 h), respectively.
CFU-C counts were determined by culturing aliquots of lysed peripheral blood in standard semi-solid progenitor cell culture medium. In brief, a defined amount of blood was washed with PBS buffer (Gibco®) containing 0.5% bovine serum albumin, followed by red blood cell lysis in hypotonic NH4Cl buffer (Sigma) and a second wash step. The cell pellet was resuspended in DMEM (Gibco®) containing 10% FCS, suspended in 2 mL of commercially available, cytokine-replete methylcellulose medium for murine cells (Cell Systems, USA), and plated in duplicate into 35 mm cell culture dishes. CFU-C were scored after 7-8 days incubation under standard conditions (20% O2, saturated humidity, 5% CO2, 37 °C). Peripheral blood cellularity was analyzed using an automated blood count machine (Drew Scientific).
Considering the curve progressions of both compounds the dose-responses are constrained to a maximum response of 4000 CFU/mL. The ED50-values indicated in Table 9 are therefore corresponding to a response of 2000 CFU/mL.

[1] abbreviates: time-response study, 5 mg/kg bolus i.p., 0.5 h after administration.
Setting [2] is: time-response study, 5 mg/kg bolus i.p., 1 h after administration.
Setting [3] is: time-response study, 5 mg/kg bolus i.p., 2 h after administration.
[4] abbreviates: time-response study, 5 mg/kg bolus i.p., 4 h after administration.
The mark [5] stands for this setting: time-response study, 5 mg/kg bolus i.p., 6 h after administration.
[6] abbreviates: time-response study, 5 mg/kg bolus i.p., 8 h after administration.

The ED50 is the midpoint of the dose-response relation. Read a high ED50 as weaker potency. Molecule `CC(C)NCCCC[C@@H]1NC(=O)[C@H](CCC(N)=O)NC(=O)[C@H](Cc2ccc(O)cc2)NC(=O)[C@@H]2CSSC[C@H](NC(=O)[C@H](Cc3ccc(O)cc3)NC(=O)[C@H](Cc3c[nH]cn3)NC(=O)[C@H](Cc3ccc(O)cc3)NC(=O)[C@@H]3CCCN3C(=O)[C@H]3CCCN3C1=O)C(=O)N[C@@H](CO)C(=O)N[C@@H](C)C(=O)N1CCC[C@@H]1C(=O)N[C@@H](CCCNC(C)C)C(=O)N[C@@H](CCCNC(=N)N)C(=O)N[C@@H](Cc1ccc(O)cc1)C(=O)N2` [Ex. 1, cyclo(-Tyr^1-His^2-Tyr^3-Cys^4-Ser^5-Ala^6-^DPro^7-Orn(iPr)^8-Arg^9-Tyr^10-Cys^11-Tyr^12-Gln^13-Lys(iPr)^14-^DPro^15-Pro^16-), disulfide bond between Cys^4 and Cys^11] (cyclo(YHYCSA[dP][Orn(iPr)]RYCYQ[Lys(iPr)][dP]P); disulfide 4-11) came in with an ED50 of 1.76 mg/kg. For the same molecule, under “dose-response study, 0.5 mg/kg bolus i.p., blood collected at 4 h”, the “CFU/mL ± SD” value is 974 ± 57 CFU/mL. Further, the “CFU/mL ± SD” value (dose-response study, 1.5 mg/kg bolus i.p., blood collected at 4 h) is on record as 1672 ± 233 CFU/mL. In addition, the “CFU/mL ± SD” value (dose-response study, 5 mg/kg bolus i.p., blood collected at 4 h) is on record as 3325 ± 310 CFU/mL. For the same molecule, the “CFU/mL ± SD” value (dose-response study, 15 mg/kg bolus i.p., blood collected at 4 h) is on record as 3289 ± 431 CFU/mL. For the setting “5 mg/kg bolus i.p.”, the “time of maximum mobilization” value amounted to 4 h. Besides, the “CFU/mL ± SD” value under setting [1] came to 511 ± 85 CFU/mL. In addition, the “CFU/mL ± SD” value under setting [2] came out at 2208 ± 262 CFU/mL. Under setting [3], the “CFU/mL ± SD” value is reported as 2592 ± 450 CFU/mL. Moreover, under setting [4], the “CFU/mL ± SD” value came out at 3109 ± 537 CFU/mL. Further, the “CFU/mL ± SD” value under setting [5] is 1857 ± 281 CFU/mL. For the same molecule, under setting [6], the “CFU/mL ± SD” value stood at 588 ± 161 CFU/mL.

Take `COc1ccc(C[C@@H]2NC(=O)[C@H](Cc3c[nH]cn3)NC(=O)[C@H](Cc3ccc(O)cc3)NC(=O)[C@@H]3CCCN3C(=O)[C@H]3CCCN3C(=O)[C@H](CCCCNC(C)C)NC(=O)[C@H](CCC(N)=O)NC(=O)[C@H](Cc3ccc(O)cc3)NC(=O)[C@@H]3CSSC[C@H](NC2=O)C(=O)N[C@@H](CO)C(=O)N[C@@H](C)C(=O)N2CCC[C@@H]2C(=O)N[C@@H](CCCNC(C)C)C(=O)N[C@@H](CCCNC(=N)N)C(=O)N[C@@H](Cc2ccc(O)cc2)C(=O)N3)cc1` [Ex. 2, cyclo(-Tyr^1-His^2-Tyr(Me)^3-Cys^4-Ser^5-Ala^6-^DPro^7-Orn(iPr)^8-Arg^9-Tyr^10-Cys^11-Tyr^12-Gln^13-Lys(iPr)^14-^DPro^15-Pro^16-), disulfide bond between Cys^4 and Cys^11] (cyclo(YHY(Me)CSA[dP][Orn(iPr)]RYCYQ[Lys(iPr)][dP]P); disulfide 4-11): the ED50 is listed as 2.38 mg/kg. In addition, where the note is “dose-response study, 1.5 mg/kg bolus i.p., blood collected at 2 h”, the “CFU/mL ± SD” value came to 1314 ± 463 CFU/mL. Besides, for the setting “dose-response study, 5 mg/kg bolus i.p., blood collected at 2 h”, the “CFU/mL ± SD” value came out at 2894 ± 329 CFU/mL. Also, the “CFU/mL ± SD” value (dose-response study, 15 mg/kg bolus i.p., blood collected at 2 h) is reported as 3589 ± 576 CFU/mL. In addition, the “time of maximum mobilization” value (5 mg/kg bolus i.p.) was determined as 2 h. Besides, the “CFU/mL ± SD” value under setting [1] was determined as 839 ± 148 CFU/mL. Besides, the “CFU/mL ± SD” value under setting [2] worked out at 1020 ± 262 CFU/mL. The “CFU/mL ± SD” value under setting [3] is recorded as 2894 ± 329 CFU/mL. The “CFU/mL ± SD” value under setting [4] came out at 1929 ± 643 CFU/mL. Besides, the “CFU/mL ± SD” value under setting [5] came to 1164 ± 151 CFU/mL. Also, the “CFU/mL ± SD” value under setting [6] turned out to be 373 ± 96 CFU/mL.
